Assays:
[1] = Ascorbate depletion assay, 9,10-PQ-sponsored oxidation, recycling of DHA; settings: 9,10-PQ model, 200 μM added at 60 minutes
Method: (§1) The kinetics of ascorbate oxidation, sponsored by both 1 μM 9,10-PQ and 2 μM copper sulphate (CuSO4), was examined using the ascorbate depletion assay (Kelly et al, Res. Rep. Health Eff. Inst., 163, 3 (2011). 9,10-PQ was employed so that the action of NBMI could be examined in isolation of its chelation properties.
(§2) All experiments were performed in triplicate in UV 96 well flat-bottomed plates (Greiner bio-one) at a final volume of 200 μL. Exposures were initiated by the addition of 20 μL of a concentrated stock of ascorbate (2 mM) into each well containing 160 μL of Chelex-100 resin treated water (containing 10% DMSO), plus either 10 μL of water, CuSO4 stock solution at 4 mM or 9,10-PQ stock solution at 2 mM, and 10 μL of NMBI (4 mM and […]).
(§3) All solutions were prepared in Chelex-100 resin treated water (containing 10% DMSO). This yielded final concentrations in the wells of […], 2 μM CuSO4, or 1 μM 9,10-PQ and between 10 and 200 μM of NBMI.
(§4) Immediately prior to the addition of the ascorbate to each assay well, the plate was pre-incubated for 10 minutes at 37° C. in a plate reader (Spectra Max 190). During the exposure, the plate was maintained at this temperature. After addition of ascorbate, the concentration remaining in each well was monitored every 2 minutes for a period of two hours by measuring the absorbance at 265 nm. The ascorbate concentration was determined with reference to a standard curve, with the rate of ascorbate oxidation determined by performing a linear regression through the initial part of a concentration verses time plot using Microcal Software Limited's OriginLab (version 5.0). This was performed for each of the triplicates and the rate of ascorbate depletion was finally expressed as mean mol s 1×10^−9 depletion of ascorbate±standard deviation.
(§5) For the experiments in which the impact of adding NBMI to the ascorbate was measured, CuSO4 and 9,10-PQ depletion assays were examined later in the time course. The plates were ran with 190 μL only for the first 55-60 minutes, after which they were removed from the plate reader and 10 μL of either the NMBI or the known reducing agent, DTT stock solution, or water was added to each well. The plate was then returned to the plate reader and the absorbance at 265 nm monitored for a further 60 minutes.
(§6) The immediate increase in the measured ascorbate concentrations was determined and is referred to as the ‘jump’, as a measure of immediate recycling capacity. The sustained ‘increase’ over the remaining 60 minutes of the incubation was also determined.

[2] = Ascorbate depletion assay, CuSO4-sponsored oxidation, recycling of DHA; settings: CuSO4 model, 200 μM added at 60 minutes
Method: as §1, §2, §3, §4, §5, §6

[3] = system: IL-6 and IL-8 secretion in A549 cells; test: Particle-induced secretion of pro-inflammatory cytokines (ELISA) in A549 cells; assay type: cell-based; settings: pre-incubation 5 mM NAC (positive control); cell line not specified (A549 and BEAS-2B tested)
Method: Secretion of the pro-inflammatory cytokines interleukin (IL)-6, IL-8 (as well as GM-CSF and MCP-1) into cell media in response to particle exposure was measured in A549 and BEAS-2B cells using the following method.
Lung epithelial cells were seeded at 5×10^4 in 24-well plates. After pre-incubation with NBMI, the anti-oxidant compound, N-acetyl-L-cysteine (NAC), which was used as a positive control, or vehicle, for 3 hours the medium was removed.
Fresh media containing various particles (as below) in different concentrations was in a total volume of 0.5 ml for an additional 24 hours. The supernatants were then separated from the cells by centrifugation.
IL-8, IL-6, GM-CSF and MCP-1 were measured in the cell free fluid using the DuoSet ELISA Development kit (R&D Systems, Abingdon, UK) according to manufacturer's protocol.
Exposure to medium only served as negative control. Each experiment was performed twice with 4 replicates.
The effect of pre-incubation with 50 μM NBMI on particle-induced cytokine formation was tested at various concentrations of relevant particles.

O[C@H](CS)[C@H](O)CS (racemic) [DTT, dithiothreitol, reference compound]
immediate rebound increase in ascorbate [1]: 5.1 µM | whether recovery of ascorbate was sustained [1]: not sustained | immediate 'jump' in ascorbate concentration [2]: 7.93 ± 6.58 µM | sustained 'increase' in ascorbate over remaining 60 minutes [2]: 10.79 ± 2.45 µM

CC(=O)N[C@@H](CS)C(=O)O [NAC, N-acetyl-L-cysteine, reference compound]
reduction of secretion of inflammatory cytokines [3]: effective in reducing the secretion of inflammatory cytokines
